The values that follow come from patent US20240228493A1, “LRRK2 INHIBITORS AND USES THEREOF” (NEURON23, ICN., priority 2022, published 2024).

The test system of one series is Caco-2 cells. Kind of series: Caco-2 bidirectional permeability. It counts as in vitro ADME. The following applies: for Caco-2 ER: Efflux Ratio=Papp(BA)/Papp(AB); for Caco-2 A2B (10^−6 cm/s): apical to basolateral; for Caco-2 A2B (10^−6 cm/s) / Caco-2 B2A (10^−6 cm/s): 2 hours, pH 7.4; for Caco-2 B2A (10^−6 cm/s): basolateral to apical. Here is the method:
The compounds disclosed herein were tested in vitro on CaCo2 cell penetration according to the following procedures.
Caco-2 cells purchased from ATCC were seeded onto […] (PET) in 96-well Corning Insert plates at 1×10^5 cells/cm^2. The media were refreshed every 4 to 5 days until the 21st to 28th day for confluent cell monolayer formation.
Experiments were run in duplicate using a HBSS transport buffer containing 10 mM HEPES at pH 7.4. The test article TEST COMPOUND was tested bi-directionally at […] concentrations, the control compound digoxin was tested bi-directionally at 10 μM, and nadolol and metoprolol were tested at 2.0 μM in the A to B direction. Final DMSO concentrations were adjusted to less than 1%. The plates were incubated for 2 hours in a CO2 incubator at 37±1° C. with 5% CO2 at saturated humidity without shaking. Following incubation, samples were mixed with acetonitrile containing internal standard and centrifuged at 3200×g for 10 minutes. Then 200 μL of supernatant was taken from all samples. For TEST COMPOUND and digoxin, the supernatant was diluted with 200 μL of ultra-pure water and for nadolol and metoprolol, the supernatant was diluted with 600 μL of ultra-pure water. All samples were analyzed by LC-MS/MS. Concentrations of TEST COMPOUND and control compounds were determined in starting solutions, donor well solutions, and receiver well solutions using peak area ratios (PAR) of analyte to internal standard. After the transport assay, a lucifer yellow rejection assay was run to determine the Caco-2 cell monolayer integrity.
The apparent permeability (Papp), the % recovery and the efflux ratio were calculated as follows:
Papp=(dCr/dt)×Vr/(A×C0) 1.
Efflux Ratio=Papp(BA)/Papp(AB) 3. • Where: • dCr/dt is the slope of the cumulative concentration in the receiver compartment versus time (mM/s). • Vr and Vd is the volume in the receiver and donor compartments (0.075 mL on the apical side, 0.25 mL on the basolateral side), respectively. • A is the surface area of the cell monolayer (0.0804 cm^2). • C0 is the measured donor concentrations (μM) at the beginning of the experiment. • Cd and Cr are the final measured concentrations in the donor and receiver compartments, respectively.
In general terms: Caco-2 cells form a polarised layer with tight junctions and transporters.

A further series has as its system human hepatocyte. Kind of series: Human hepatocyte stability, predicted hepatic clearance (h-Hept CL predict). It counts as in vitro ADME. The following applies: human hepatocytes, 0.5×10^6 cells/mL, 1 μM, values without asterisk. How it is done: The compounds disclosed herein were tested in vitro on human hepatocyte for in vitro h-Hept CL predict according to the following procedures. • 1. Compound sock solutions were prepared by dissolving test compound and positive control in dimethyl sulfoxide (DMSO) at a concentration of 10 mM. Stock solutions were then diluted to 100 μM solutions by combining 198 μL of 50% acetonitrile/50% water with 2 μL of the 10 mM stock in separate conical tubes. • 2. Cryopreserved hepatocytes were prepared as follows: Incubation medium (William's E Medium supplemented with GlutaMAX) and hepatocyte thawing medium were placed in a 37° C. water bath and allowed to warm for at least 15 minutes prior to use. Cryopreserved hepatocytes were removed from storage, ensuring that vials remained at cryogenic temperatures until thawed. Cells were thawed by placing the vials in a 37° C. water bath and gently shaking the vials for 2 minutes. After thawing was completed, vials were sprayed with 70% ethanol and transferred to a biosafety cabinet. Hepatocytes were transferred into 50 mL conical tube containing thawing medium using wide-bore pipette tips. Tubes were placed into a centrifuge and spun at 100 g for 10 minutes. Then thawing medium was aspirated and hepatocytes were resuspended in enough incubation medium to yield ˜1.5×10^6 cells/mL. Cells were counted using acridine orange and propidium iodide (AO/PI) staining, and the viable cell density was determined. Cells were diluted with incubation medium to a working cell density of 0.5×10^6 viable cells/mL. • 3. To determine hepatocyte stability, 198 μL of hepatocytes were transferred into each well of a 96-well non-coated plate. Plates were placed in an incubator to allow the hepatocytes to warm for 10 minutes. • 4. The reaction was started by transferring 2 μL of the 100 μM test compound or positive control solution into respective wells of the 96-well non-coated plates. Plates were returned to the incubator until 25 μL aliquots of well contents were sampled at time points of 0, 15, 30, 60, 90 and 120 minutes. The aliquots were then mixed with 6 volumes (150 μL) of acetonitrile containing internal standard, IS (100 nM alprazolam, 200 nM caffeine and 100 nM tolbutamide) to terminate the reaction and vortexed for 5 minutes. After centrifuging the samples for 45 minutes at 3,220 g, aliquots of 100 μL of the supernatant were taken and diluted with 100 μL of ultra-pure water. The mixture was used for LC/MS/MS analysis. All incubations were performed in duplicate.
All calculations were carried out using Microsoft Excel. Peak area ratios (PAR) were determined from extracted ion chromatograms. The in vitro half-life (t1/2) of parent compound was determined by regression analysis of the percent parent disappearance vs. time curve as follows:
Conversion of the in vitro t1/2 (in minutes) into the in vitro intrinsic clearance (in vitro CLint, in μL/min/1×10^6 cells) was done using the following equation (mean of duplicate determinations): […]
The scaled-up intrinsic clearance (CLint, mL/min/kg), predicted hepatic clearance (CLH, mL/min/kg) and hepatic extraction ratio (ER) were calculated using the following equations:
CLint=(0.693/t1/2)*(1/(hepatocyte concentration (0.5*10^6 cells/mL)))*scaling factors (Table (A) Appendix Table 1)
CLHept-predict=(QH*Scaled-up CLint*fub)/(QH+Scaled-up CLint*fub)
ER=CLH/QH • Where: • V=incubation volume (0.2 mL) • N=number of hepatocytes per well (0.1*10^6 cells) • QH=hepatic blood flow (mL/min/kg) (Table (A) Appendix Table 1) • fub=fraction of unbound drug in plasma, assumed to be 1

The target of series [1] is T1, wt human LRRK2, catalytic site (Homo sapiens, UniProt Q5S007).
T1 construct: wt human LRRK2, catalytic site, catalytic site (ThermoFisher/USA); purchased ThermoFisher
Kind of series: TR-FRET LanthaScreen Tb Kinase Activity Assay, LRRK2 inhibition. The following applies: 2 nM wt human LRRK2, 400 nM peptide, 38 μM ATP. It counts as biochemical. Here is the method:
The compounds disclosed herein were tested for their inhibitory effect on LRRK2 kinase according to the following procedures.
The protocol for basic TR-FRET LanthaScreen Tb Kinase Activity Assay inhibitor studies were as follows. LanthaScreen Kinase Activity Assays (ThermoFisher/USA) to evaluate inhibitors were performed by addition of 100 nL of test compound in corresponding DMSO dilutions/5 μL of kinase/fluorescein-ERM (LRRKtide) peptide mixture, Compound & kinase were pre-incubated for 15 minutes, then 5 μl of ATP into 384 well small volume plates. After incubation for 120 minutes at room temperature, the detection reagents containing Tb-anti-pLRRKtide antibody were added to monitor phosphorylation level of peptide. Then, after 60 min minutes incubation at room temperature plates were read in Envision. Data analysis of emission ratios was according to LanthaScreen Tb Kinase Activity Assay protocol.
Kinase and assay components were adjusted to final concentrations according to the kit protocol. For LRRK2: 2 nM wt human LRRK2, catalytic site, catalytic site (ThermoFisher/USA), 400 nM peptide, 38 μM ATP in 1× Kinase Buffer A. […]
Kinase and assay components were adjusted to final concentrations according to the kit protocol.

T1 sequence (Q5S007 1879-2138 limits assumed): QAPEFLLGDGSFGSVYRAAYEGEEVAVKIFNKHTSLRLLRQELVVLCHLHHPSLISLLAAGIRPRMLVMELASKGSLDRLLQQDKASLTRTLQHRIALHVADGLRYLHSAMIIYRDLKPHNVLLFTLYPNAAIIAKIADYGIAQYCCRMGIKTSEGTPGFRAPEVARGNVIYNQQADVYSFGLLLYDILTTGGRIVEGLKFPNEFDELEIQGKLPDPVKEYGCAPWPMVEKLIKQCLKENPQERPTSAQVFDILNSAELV

What is called IC50 is the concentration needed to halve the response being measured. A lower IC50 goes with greater potency. In the case of `CCS(=O)(=O)N1CCN(c2cc3c(cn2)NC(c2c(F)cccc2F)=Nc2c(C)n[nH]c2-3)CC1` [Example 11, 8-(2,6-difluorophenyl)-13-(4-ethylsulfonylpiperazin-1-y1)-5-methyl-3,4,7,9,12-pentazatricyclo[8.4.0.02, 6]tetradeca-1(10),2(6),4,7,11,13-hexaene], in the series with Caco-2 cells, the “Caco-2 ER” value is reported as “L (L (Likely)”: ER≥2.5)”, the “Caco-2 A2B (10^−6 cm/s)” value is on record as “L (L (Low permeability)”: A2B (B2A)<1)” and the “Caco-2 B2A (10^−6 cm/s)” value is given as “H (H (High permeability)”: A2B (B2A)>5)”. Besides, the “hHep Cl (mL/min/kg)” value with human hepatocyte is “I (I (Intermediate Cl)”: 6.3≤Hep Cl (mL/min/kg)≤14.7)”. The IC50 in series [1] was below 1 nM.
The matching figures for `COC[C@H]1CN(c2cc3c(cn2)NC(c2c(F)cccc2F)=Nc2c(C)n[nH]c2-3)CCO1` [Example 15, (2R)-4-[8-(2,6-difluorophenyl)-5-methyl-3,4,7,9,12-pentazatricyclo[8.4.0.02,6]tetradeca-1(10),2(6),4,7,11,13-hexaen-13-y1]-2-(methoxymethyl)morpholine]: “L (L (Likely)”: ER≥2.5)”, “M (M (Moderate permeability)”: 1≤A2B (B2A)≤5)”, “H (H (High permeability)”: A2B (B2A)>5)”, “L (L (Low Cl)”: Hep Cl (mL/min/kg)<6.3)” and 1 to 100 nM.
`COC[C@@H]1CN(c2cc3c(cn2)NC(c2c(F)cccc2F)=Nc2c(C)n[nH]c2-3)CCO1` [Example 16, (2S)-4-[8-(2,6-difluorophenyl)-5-methyl-3,4,7,9,12-pentazatricyclo[8.4.0.02,6]tetradeca-1(10),2(6),4,7,11,13-hexaen-13-y1]-2-(methoxymethyl)morpholine]: in the series with Caco-2 cells, the “Caco-2 ER” value is on record as “L (L (Likely)”: ER≥2.5)”, the “Caco-2 A2B (10^−6 cm/s)” value is on record as “M (M (Moderate permeability)”: 1≤A2B (B2A)≤5)” and the “Caco-2 B2A (10^−6 cm/s)” value was “H (H (High permeability)”: A2B (B2A)>5)”. In addition, in the series with human hepatocyte, the “hHep Cl (mL/min/kg)” value is “L (L (Low Cl)”: Hep Cl (mL/min/kg)<6.3)”. For the same molecule, the IC50 in series [1] was in the range of 1 to 100 nM.
Consider `Cc1n[nH]c2c1N=C(c1c(F)cccc1F)Nc1cnc(N3CCC[C@H](C#N)C3)cc1-2` [Example 19, (3S)-1-[8-(2,6-difluorophenyl)-5-methyl-3,4,7,9,12-pentazatricyclo [8.4.0.02,6]tetradeca-1(10),2(6),4,7,11,13-hexaen-13-yl]piperidine-3-carbonitrile], for which, in the series with Caco-2 cells, the “Caco-2 ER” value is reported as “L (L (Likely)”: ER≥2.5)”, the “Caco-2 A2B (10^−6 cm/s)” value was “M (M (Moderate permeability)”: 1≤A2B (B2A)≤5)” and the “Caco-2 B2A (10^−6 cm/s)” value is on record as “H (H (High permeability)”: A2B (B2A)>5)”. In the series on human hepatocyte, the “hHep Cl (mL/min/kg)” value is recorded as “L (L (Low Cl)”: Hep Cl (mL/min/kg)<6.3)”. This molecule also yielded a concentration for half-maximal inhibition (IC50) in series [1] of 1 to 100 nM.
In the case of `OCc1ccc(F)c(C2=Nc3c(Cl)n[nH]c3-c3cc(N4CCOCC4)ncc3N2)c1F` [Example 21, (3-(3-chloro-9-morpholino-1,6-dihydropyrazolo[4,3-d]pyrido[4,3-f][1,3]diazepin-5-yl)-2,4-difluorophenyl)methanol], in the series on Caco-2 cells, the “Caco-2 ER” value was “L (L (Likely)”: ER≥2.5)”, the “Caco-2 A2B (10^−6 cm/s)” value was “L (L (Low permeability)”: A2B (B2A)<1)” and the “Caco-2 B2A (10^−6 cm/s)” value is “H (H (High permeability)”: A2B (B2A)>5)”. In addition, the “hHep Cl (mL/min/kg)” value with human hepatocyte was “L (L (Low Cl)”: Hep Cl (mL/min/kg)<6.3)”. The half-inhibitory concentration (IC50) in series [1] is below 1 nM.
The matching figures for `OCc1cc(F)c(C2=Nc3c(Cl)n[nH]c3-c3cc(N4CCOCC4)ncc3N2)c(F)c1` [Example 22, (4-(3-chloro-9-morpholino-1,6-dihydropyrazolo[4,3-d]pyrido[4,3-f][1,3]diazepin-5-y1)-3,5-difluorophenyl)methanol]: “L (L (Likely)”: ER≥2.5)”, “L (L (Low permeability)”: A2B (B2A)<1)”, “H (H (High permeability)”: A2B (B2A)>5)”, “I (I (Intermediate Cl)”: 6.3≤Hep Cl (mL/min/kg)≤14.7)” and below 1 nM.
The matching figures for `Fc1cccc(Cl)c1C1=Nc2c(Cl)n[nH]c2-c2cc(N3CCOCC3)ncc2N1` [Example 24, (4-[5-chloro-8-(2-chloro-6-fluoro-phenyl)-3,4,7,9,12-pentazatricyclo[8.4.0.02,6]tetradeca-1(10),2(6),4,7,11,13-hexaen-13-yl]morpholine)]: “L (L (Likely)”: ER≥2.5)”, “M (M (Moderate permeability)”: 1≤A2B (B2A)≤5)”, “H (H (High permeability)”: A2B (B2A)>5)”, “I (I (Intermediate Cl)”: 6.3≤Hep Cl (mL/min/kg)≤14.7)” and below 1 nM.
On the same counts, the results for `[2H]C1([2H])OC([2H])([2H])C([2H])([2H])N(c2cc3c(cn2)NC(c2c(F)cccc2F)=Nc2c(Cl)n[nH]c2-3)C1([2H])[2H]` [Example 25, 4-[5-chloro-8-(2,6-difluorophenyl)-3,4,7,9,12-pentazatricyclo[8.4.0.02,6]tetradeca-1(10),2(6),4,7,11,13-hexaen-13-yl]-2,2,3,3,5,5,6,6-octadeuterio-morpholine] are “L (L (Likely)”: ER≥2.5)”, “M (M (Moderate permeability)”: 1≤A2B (B2A)≤5)”, “H (H (High permeability)”: A2B (B2A)>5)”, “L (L (Low Cl)”: Hep Cl (mL/min/kg)<6.3)” and below 1 nM.
